Drawing on patent US11566030B2, “Substituted 2,6-dihydropyrrolo[3,4-c]pyrazoles as pyruvate kinase activators” (priority 2021, dated 2023), this text covers AC50, Emax and PKR % activation for 23 compounds.

For orientation: AC50 means the concentration at which the activity in the assay is half-maximal.

This assay addresses T1, Human pyruvate kinase R (PKR) (Homo sapiens, UniProt P30613).
T1 construct: Human pyruvate kinase R (PKR), residues 14-574; 6xHis-8xArg-SUMO (N, cleaved yes); host or cells: E. coli
Put plainly: Biochemical assay for activation of pyruvate kinase R (Kinase-Glo luminescence, ATP generation). The settings on record: for Emax: read-out: PKR % activation, maximal activation level achieved with each compound relative to the activation level achieved by AG-348 @ 10 μM. As for the experimental part: Human pyruvate kinase R (PKR), residues 14-574, and human pyruvate kinase M2, residues 1-531, were cloned into expression plasmids and obtained from ATUM Bio (Newark, Calif.). Proteins were translated as fusions with 6×-His,8×-Arg, and SUMO at the N-terminus. A third construct of human PKR was truncated, residues 50-574, and similarly cloned for use in crystallography experiments. All proteins were cloned, expressed in E. coli, and purified using similar protocols. Cells were grown at 30° C. in Luria-Bertani broth supplemented with 0.4% glucose to OD600=0.8 and induced with 0.4 mM IPTG at 16° C. for 18 hours. Cells were harvested by centrifugation, resuspended in 50 mM potassium phosphate pH 8.0, 500 mM NaCl, 25 mM imidazole pH 8.0, and 3 mM β-mercaptoethanol. Cells were lysed using a LM20 microfluidizer from Microfluidics (Westwood, Mass.). The crude lysate was immediately supplemented with 0.2 mM phenylmethylsulfonyl fluoride (PMSF) and centrifuged at 20,000 g for 20 minutes. The soluble fraction was subsequently incubated with 2 mL Ni-NTA (GE Healthcare) per 1,000 ODs for 1 hour at 4° C. Following incubation with the Ni-NTA resin, lysate was removed by pelleting resin at 2,500 g for 3 minutes and washed 3 times with 9 bed volumes of 50 mM potassium phosphate pH 8.0, 500 mM NaCl, 25 mM imidazole, and 3 mM β-mercaptoethanol. Following the batch wash Ni-NTA resin was loaded onto a gravity column and His-tagged protein was eluted with 6 bed volumes of 10 mM Tris/HCl pH 8.0, 200 mM NaCl, 500 mM imidazole, and 3 mM β-mercaptoethanol. Eluted protein was dialyzed overnight against 10 mM Tris/HCl pH 8.0, 200 mM NaCl, and 1 mM DTT and the 6×-His-8×-Arg-SUMO-tag was cleaved using a 20:1 molar ratio of protein: 3C protease. The protein was purified by anion exchange chromatography on a HiTrapQ or MonoQ 10/100 GL column (GE Healthcare) via a linear NaCl gradient and twice by size exclusion chromatography using a Superdex S200 26/60 column (GE Healthcare) run in 10 mM Tris/HCl pH 8.0, 200 mM NaCl, 10 mM MgCl2, 1 mM DTT. Proteins were concentrated to −12 mg/mL for crystallization and flash frozen for storage.
Biochemical assay for Activation of Pyruvate Kinase R
Activation of pyruvate kinase R (PKR) and pyruvate kinase M2 (PKM2) were measured using a luminescence based measurement of ATP generation and the Kinase-Glo luminescent kinase reagent kit.
In general terms: In Kinase-Glo more light means more ATP remaining.

The mark [1] stands for this setting: PKR AC50 (nM), 0.1 nM PKR, 0.3 mM ADP, 0.1 mM PEP, 1% DMSO.

Like-named read-outs stand apart in the source and are kept apart here.

T1 sequence (P30613 14-574): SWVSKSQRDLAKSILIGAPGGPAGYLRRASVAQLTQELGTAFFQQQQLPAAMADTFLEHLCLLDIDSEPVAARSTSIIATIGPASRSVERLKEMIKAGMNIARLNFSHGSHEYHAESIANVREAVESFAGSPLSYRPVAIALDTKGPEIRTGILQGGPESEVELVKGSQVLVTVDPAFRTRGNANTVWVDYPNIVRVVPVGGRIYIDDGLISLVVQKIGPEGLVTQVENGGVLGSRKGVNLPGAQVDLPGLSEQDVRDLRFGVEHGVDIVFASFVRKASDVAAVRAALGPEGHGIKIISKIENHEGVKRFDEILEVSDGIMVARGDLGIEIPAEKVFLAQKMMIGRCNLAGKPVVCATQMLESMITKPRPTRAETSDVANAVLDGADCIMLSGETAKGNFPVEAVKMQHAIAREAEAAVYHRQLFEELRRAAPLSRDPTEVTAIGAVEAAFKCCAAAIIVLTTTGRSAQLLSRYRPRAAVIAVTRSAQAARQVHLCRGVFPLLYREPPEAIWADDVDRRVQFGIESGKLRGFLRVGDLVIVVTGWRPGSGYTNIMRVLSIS

Regarding `Cc1c(S(=O)(=O)n2cc3c(n2)CN(C(=O)[C@@H](CO)c2ccccc2Cl)C3)cnn1CCF` [Compound 99, (2R)-2-(2-chlorophenyl)-1-{2-[1-(2-fluoroethyl)-5-methylpyrazol-4-ylsulfonyl]-4H,6H-pyrrolo[3,4-c]pyrazol-5-yl}-3-hydroxypropan-1-one], the Emax was 100%. Further, the activity under setting [1] was half-maximal at 410 nM (AC50).
The like results for `CCc1ccccc1[C@@H](CO)C(=O)N1Cc2cn(S(=O)(=O)c3cnn(CC(F)F)c3)nc2C1` [Compound 105, (S)-1-(2-((1-(2,2-difluoroethyl)-1H-pyrazol-4-yl)sulfonyl)-2,6-dihydropyrrolo[3,4-c]pyrazol-5(4H)-yl)-2-(2-ethylphenyl)-3-hydroxypropan-1-one] were, in that order, 67% and 74 nM.
Regarding `O=C([C@H](O)c1ccccc1F)N1Cc2cn(S(=O)(=O)c3cnn(CC(F)(F)F)c3)nc2C1` (single isomer, unassigned) [Compound 41], under setting [1], the activity was half-maximal at 3400 nM (AC50). Moreover, the PKR % activation (maximal activation level achieved with each compound relative to the activation level achieved by AG-348 @ 10 μM) was 40%.
`CCn1cc(S(=O)(=O)n2cc3c(n2)CN(C(=O)[C@H](CO)c2ccccc2)C3)c(C(F)(F)F)n1` [Compound 94, (2S)-1-{2-[1-ethyl-3-(trifluoromethyl)pyrazol-4-ylsulfonyl]-4H,6H-pyrrolo[3,4-c]pyrazol-5-yl}-3-hydroxy-2-phenylpropan-1-one]: the Emax is 18%. Further, the activity under setting [1] was half-maximal at 34 nM (AC50).
Turning to `COc1ccccc1[C@H](CO)C(=O)N1Cc2cn(S(=O)(=O)c3cnn(CC(F)F)c3)nc2C1` [Compound 121, (2R)-1-{2-[1-(2,2-difluoroethyl)pyrazol-4-ylsulfonyl]-4H,6H-pyrrolo[3,4-c]pyrazol-5-yl}-3-hydroxy-2-(2-methoxyphenyl)propan-1-one], the AC50 was determined as 98 nM and the Emax came to 166%.
For the compound `COc1ccccc1[C@H](CO)C(=O)N1Cc2cn(S(=O)(=O)c3cnn(CC(F)F)c3C)nc2C1` [Compound 104, (2R)-1-{2-[1-(2,2-difluoroethyl)-5-methylpyrazol-4-ylsulfonyl]-4H,6H-pyrrolo[3,4-c]pyrazol-5-yl}-3-hydroxy-2-(2-methoxyphenyl)propan-1-one], the Emax worked out at 121%. The same compound returned an AC50 under setting [1] of 560 nM.
Consider `O=C([C@H](O)c1ccccc1F)N1Cc2cn(S(=O)(=O)c3ccn(CC(F)F)n3)nc2C1` [Compound 51, (2R)-1-{2-[1-(2,2-difluoroethyl)pyrazol-3-ylsulfonyl]-4H,6H-pyrrolo[3,4-c]pyrazol-5-yl}-2-(2-fluorophenyl)-2-hydroxyethanone], for which the AC50 was determined as 140 nM and the Emax was determined as 112%.
For the compound `COc1nc(C)c(S(=O)(=O)n2cc3c(n2)CN(C(=O)[C@H](CO)c2ccccc2F)C3)s1` [Compound 23, (2S)-2-(2-fluorophenyl)-3-hydroxy-1-{2-[(2-methoxy-4-methyl-1,3-thiazol-5-yl)sulfonyl]-2H,4H,5H,6H-pyrrolo[3,4-c]pyrazol-5-yl}propan-1-one], the activity was half-maximal at 8.6 nM (AC50) and the Emax amounted to 30%.
For the compound `O=C([C@H](CO)c1ccccc1)N1Cc2cn(S(=O)(=O)c3ccc(CCC(F)(F)F)s3)nc2C1` [Compound 17, (2S)-3-hydroxy-2-phenyl-1-(2-{[5-(3,3,3-trifluoropropyl)thiophen-2-yl]sulfonyl}-2H,4H,5H,6H-pyrrolo[3,4-c]pyrazol-5-yl)propan-1-one], the Emax amounted to 23%. The compound also returned an AC50 under setting [1] of 53 nM.
For the compound `O=C([C@H](O)c1ncccc1F)N1Cc2cn(S(=O)(=O)c3cnn(CC(F)F)c3)nc2C1` (single isomer, unassigned) [Compound 38], the AC50 was 1800 nM and the Emax was determined as 121%.
In the case of `C[C@@H](O)[C@@H](C(=O)N1Cc2cn(S(=O)(=O)c3cnn(CC(F)(F)F)c3)nc2C1)c1ccccc1` [Compound 49, (2S,3R)-3-hydroxy-2-phenyl-1-{2-[1-(2,2,2-trifluoroethyl)pyrazol-4-ylsulfonyl]-4H,6H-pyrrolo[3,4-c]pyrazol-5-yl}butan-1-one], the Emax came to 113%. The compound further came in with an AC50 under setting [1] of 71 nM.
Taken in the same sequence, the figures for `Cc1cn(CC(F)(F)F)nc1S(=O)(=O)n1cc2c(n1)CN(C(=O)[C@@H](CO)c1ccccc1Cl)C2` [Compound 71, (2R)-2-(2-chlorophenyl)-3-hydroxy-1-{2-[4-methyl-1-(2,2,2-trifluoroethyl)pyrazol-3-ylsulfonyl]-4H,6H-pyrrolo[3,4-c]pyrazol-5-yl}propan-1-one] were 30% and 3900 nM.
As for `COCCOc1ccccc1[C@@H](CO)C(=O)N1Cc2cn(S(=O)(=O)c3cnn(CC(F)F)c3)nc2C1` (single isomer, unassigned) [Compound 92], the Emax amounted to 0%.
With `Cc1nc(OCC(F)(F)F)sc1S(=O)(=O)n1cc2c(n1)CN(C(=O)[C@H](CO)c1ccccc1)C2` [Compound 22, (2S)-3-hydroxy-1-(2-{[4-methyl-2-(2,2,2-trifluoroethoxy)-1,3-thiazol-5-yl]sulfonyl}-2H,4H,5H,6H-pyrrolo[3,4-c]pyrazol-5-yl)-2-phenylpropan-1-one], the Emax came to 0%. Further, the AC50 under setting [1] amounted to 1000 nM.
As for `Cc1nn(CC(F)F)c(C)c1S(=O)(=O)n1cc2c(n1)CN(C(=O)[C@H](CO)c1ccccc1)C2` [Compound 87, (2S)-1-[2-[1-(2,2-difluoroethyl)-3,5-dimethylpyrazol-4-ylsulfonyl]-4H,6H-pyrrolo[3,4-c]pyrazol-5-yl]-3-hydroxy-2-phenylpropan-1-one], the Emax is 59%.
As for `C[C@](CO)(C(=O)N1Cc2cn(S(=O)(=O)c3cnn(CC(F)F)c3)nc2C1)c1ccccn1` (single isomer, unassigned) [Compound 10], the Emax came to 112%. Under setting [1], this compound had an AC50 of 116 nM.
For the compound `Cc1cn(CC(F)F)nc1S(=O)(=O)n1cc2c(n1)CN(C(=O)[C@H](CO)c1ccccc1Cl)C2` [Compound 80, (2S)-2-(2-chlorophenyl)-1-(2-{[1-(2,2-difluoroethyl)-4-methyl-1H-pyrazol-3-yl]sulfonyl}-2H,4H,5H,6H-pyrrolo[3,4-c]pyrazol-5-yl)-3-hydroxypropan-1-one], the AC50 was 8.9 nM and the Emax was found to be 73%.
The like results for `COCCOc1ccccc1[C@H](CO)C(=O)N1Cc2cn(S(=O)(=O)c3cnn(CC(F)F)c3)nc2C1` (single isomer, unassigned) [Compound 93] were, in that order, 120 nM and 180%.
Taken in the same sequence, the figures for `CCc1ccc(S(=O)(=O)n2cc3c(n2)CN(C(=O)[C@H](CO)c2ccccc2)C3)s1` [Compound 21, (2S)-1-{2-[(5-ethylthiophen-2-yl)sulfonyl]-2H,4H,5H,6H-pyrrolo[3,4-c]pyrazol-5-yl}-3-hydroxy-2-phenylpropan-1-one] were 16 nM and 65%.
As to `O=C([C@H](O)c1ccccc1F)N1Cc2cn(S(=O)(=O)c3cnn(CC(F)F)c3)nc2C1` [Compound 36, (2R)-1-[2-[1-(2,2-difluoroethyl)pyrazol-4-ylsulfonyl]-4H,6H-pyrrolo[3,4-c]pyrazol-5-yl]-2-(2-fluorophenyl)-2-hydroxyethanone], the Emax is 85%. Half-maximal activity under setting [1] (AC50) was put at 23 nM.
Consider `O=C([C@@H](CO)c1ncccc1F)N1Cc2cn(S(=O)(=O)c3ccn(CC(F)F)n3)nc2C1` (single isomer, unassigned) [Compound 32], for which the AC50 amounted to 40 nM and the Emax was 114%.
Taken in the same sequence, the figures for `Cc1cn(CC(F)F)nc1S(=O)(=O)n1cc2c(n1)CN(C(=O)[C@H](CO)c1ccccc1F)C2` [Compound 78, (2S)-1-{2-[1-(2,2-difluoroethyl)-4-methylpyrazol-3-ylsulfonyl]-4H,6H-pyrrolo[3,4-c]pyrazol-5-yl}-2-(2-fluorophenyl)-3-hydroxypropan-1-one] were 7.1 nM and 32%.
With `O=C([C@H](CO)c1ccccc1)N1Cc2cn(S(=O)(=O)c3ccc(Br)s3)nc2C1` [Compound 19, (2S)-1-{2-[(5-bromothiophen-2-yl)sulfonyl]-2H,4H,5H,6H-pyrrolo[3,4-c]pyrazol-5-yl}-3-hydroxy-2-phenylpropan-1-one], the Emax stood at 67%. Also, the AC50 under setting [1] amounted to 19 nM.
